We go through six molecules from PubChem BioAssay (NCI).

Several values for one entry are separate records, joined by “and”; a condition that tells them apart may be missing. Equal values may be shown once.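 Cultured in 96-well plates, cells were exposed to test compound for 48 hours across five concentrations. At the GI50, growth is halved. TGI: total growth inhibition.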

Among the test systems are MOLT-4 leukemia; KM12 colon; NCI-H226 lung; LOX IMVI melanoma; HCT-116 colon; HOP-92 NSCLC; 786-0 renal; K-562 leukemia; UACC-62 melanoma; UO-31 renal.
Common to all, as to assay: DTP human tumour cell line panel, 48 h

The term GI50 denotes the concentration at which growth is held to half of that of the control. What is called TGI is the concentration at which net growth stops. On to `CCCn1cc(/C=N\N=C2\C(=O)Nc3ccc(C)cc32)c2ccccc21`, for which the GI50 with MOLT-4 leukemia was 0.682 µM; in the experiment on KM12 colon it was 3.22 µM; in the experiment on NCI-H226 lung, 2.95 µM; in the experiment with LOX IMVI melanoma, 1.26 µM; in the experiment on HCT-116 colon, 1.75 µM; in the experiment on HOP-92 NSCLC, 1.87 µM. Besides, the GI50 in the experiment with 786-0 renal is 5.94 µM; in the experiment on K-562 leukemia it was 2.22 µM; in the experiment on UACC-62 melanoma, 2.24 µM; in the experiment on UO-31 renal, 2.28 µM. Moreover, the TGI with MOLT-4 leukemia worked out at 4.54 µM; in the experiment on KM12 colon, 19.7 µM; in the experiment on NCI-H226 lung, 20.6 µM; in the experiment on LOX IMVI melanoma it was 3.06 µM; in the experiment with HCT-116 colon, 4.17 µM; in the experiment with HOP-92 NSCLC, 6.57 µM. Moreover, the TGI was 71.2 µM in the experiment on 786-0 renal, 20.5 µM in the experiment with K-562 leukemia, 12.1 µM in the experiment with UACC-62 melanoma and 61.8 µM with UO-31 renal.
On to `COc1ccc(C2CC(c3ccc4ccccc4c3)=NN2c2nc(O)c(C3=c4cc(Cl)ccc4=NC3=O)s2)cc1` (centres undefined), for which the GI50 was 0.0329 µM and < 0.005 µM in the experiment with MOLT-4 leukemia; 0.0236 µM and < 0.005 µM in the experiment with KM12 colon; 0.0208 µM in the experiment with NCI-H226 lung; 0.0223 µM and < 0.005 µM in the experiment on LOX IMVI melanoma; 0.0338 µM and < 0.005 µM with HCT-116 colon; 0.0168 µM and < 0.005 µM with HOP-92 NSCLC. In addition, the GI50 with 786-0 renal was 0.0231 µM and < 0.005 µM; in the experiment on K-562 leukemia, 0.0371 µM and < 0.005 µM; in the experiment with UACC-62 melanoma, 0.0296 µM and < 0.005 µM; with UO-31 renal it was 0.0193 µM and < 0.005 µM. Also, the TGI with NCI-H226 lung is 0.052 µM; in the experiment with HCT-116 colon, 0.122 µM and 0.107 µM; in the experiment on K-562 leukemia, 1.65 µM; in the experiment with UO-31 renal, 0.0436 µM and < 0.005 µM.
On to `CCN(CC)CCCNc1nccc2c(C)c3[nH]c4ccncc4c(=O)c3cc12`, for which the TGI stood at 2.51 µM with MOLT-4 leukemia; 15.5 µM in the experiment on KM12 colon; 10.2 µM with NCI-H226 lung; 3.26 µM with LOX IMVI melanoma; 2.03 µM in the experiment with HCT-116 colon; 7.64 µM with HOP-92 NSCLC. For the same molecule, the TGI came out at 11.9 µM in the experiment on 786-0 renal, 13 µM in the experiment with K-562 leukemia, 3.72 µM in the experiment on UACC-62 melanoma and 43.4 µM in the experiment on UO-31 renal.
In the case of `O=C1C(c2ccccc2)=[N+]([O-])c2cc([N+](=O)[O-])ccc21`, the TGI in the experiment with MOLT-4 leukemia was 51.6 µM; with KM12 colon, 47.5 µM; with NCI-H226 lung, above 100 µM; with LOX IMVI melanoma, 28.6 µM; in the experiment on HCT-116 colon, 53.4 µM; in the experiment on HOP-92 NSCLC it was 64.5 µM. Besides, the TGI in the experiment with 786-0 renal was 63.3 µM; with K-562 leukemia it was 58.5 µM; in the experiment on UACC-62 melanoma, 26.9 µM; with UO-31 renal, above 100 µM.
In the case of `C=C1C(=O)O[C@H]2[C@H]1CC/C(CNC(=O)C(C)c1ccc(CC(C)C)cc1)=C\CC[C@@]1(C)O[C@@H]21` (some centres undefined), the GI50 is 2.39 µM in the experiment with MOLT-4 leukemia; 2.38 µM with KM12 colon; 1.66 µM in the experiment with NCI-H226 lung; 1.45 µM in the experiment with LOX IMVI melanoma; 1.32 µM in the experiment with HCT-116 colon; 1.5 µM with HOP-92 NSCLC. The GI50 in the experiment with 786-0 renal was 1.76 µM; in the experiment with K-562 leukemia, 2.29 µM; with UACC-62 melanoma, 1.67 µM; in the experiment with UO-31 renal, 1.33 µM. In addition, the TGI came to 9.66 µM in the experiment on MOLT-4 leukemia; 5.65 µM in the experiment with KM12 colon; 3.27 µM with NCI-H226 lung; 2.81 µM in the experiment with LOX IMVI melanoma; 2.92 µM in the experiment with HCT-116 colon; 2.92 µM with HOP-92 NSCLC. Further, the TGI is 3.36 µM in the experiment on 786-0 renal, 10.4 µM with K-562 leukemia, 3.38 µM in the experiment with UACC-62 melanoma and 2.6 µM with UO-31 renal.
`COc1ccccc1-c1ccc2c(N)c(C(=O)c3ccc4c(c3)OCO4)sc2n1`: the GI50 with MOLT-4 leukemia was 4.98 µM; with KM12 colon it was 4.46 µM; in the experiment with NCI-H226 lung, 7.35 µM; in the experiment on LOX IMVI melanoma, 4.61 µM; with HCT-116 colon it was 3.68 µM; with HOP-92 NSCLC, 2.99 µM. Also, the GI50 in the experiment on 786-0 renal was 2.78 µM; in the experiment with K-562 leukemia it was 3.74 µM; with UACC-62 melanoma, 4.12 µM; in the experiment with UO-31 renal, 4.12 µM. Besides, the TGI is above 100 µM with MOLT-4 leukemia; 23.3 µM with KM12 colon; 31.8 µM in the experiment on NCI-H226 lung; 21.6 µM with LOX IMVI melanoma; 15 µM in the experiment with HCT-116 colon; 13 µM in the experiment with HOP-92 NSCLC. Moreover, the TGI with 786-0 renal was 11.3 µM; with K-562 leukemia, above 100 µM; in the experiment on UACC-62 melanoma it was 18.6 µM; with UO-31 renal it was 16.7 µM.
